Test results reported in patent publication US20220062240A1, “METHODS OF TREATING CANCER USING A CLK INHIBITOR” (BioSplice Therapeutics, Inc., priority 2018, published 2022).
Where two headings read alike, the source gives them in different places.

Tests used:
Assay type in all cases: cell-based
[1] = tested on: ovarian cancer (4 cell lines); assay: CellTiter-Glo Viability Assay, ovarian cancer; settings: Homo sapiens, inhibition of cancer cell proliferation
Protocol: (§1) Fifty-one human cancer cell lines (breast cancer (8 cell lines), colorectal cancer (6 cell lines), haematopoietic & lymphoid tumors (13 cell lines), liver cancer (3 cell lines), lung cancer (4 cell lines), ovarian cancer (4 cell lines), pancreatic cancer (8 cell lines), and prostate cancer (5 cell lines)) were tested to determine the effects of representative compounds of Formulas (I)-(XII) on cellular proliferation, as evaluated using the CellTiter-Glo® Viability Assay.
(§2) For the Cell Viability Assays, cells were plated at 300-3,000 cells/well in 384-well plates in their respective media containing 1% Penicillin-Streptomycin and incubated for four days at 37° C. and 5% CO2. Twenty-eight replicates of DMSO-treated cells served as controls and cells treated with compound were performed in duplicate.
(§3) After incubation, 10 μL of CellTiter-Glo® (Promega) was added to each well allowed to incubate for approximately 12 minutes. This reagent results in cell lysis and generation of a luminescent signal proportional to the amount of ATP present. The amount of ATP is directly proportional to the number of metabolically active, viable cells present in culture. The CellTiter-Glo® Assay generates a luminescent signal, produced by the luciferase reaction (Promega.com).
(§4) After incubation, the luminescence signal was read using an EnVision™ Multilabel Plate Reader (Perkin Elmer). Dose-response curves were generated and EC50 concentration values were calculated using Dotmatics' Studies Software (Bishops Stortford, UK).

[2] = tested on: lung cancer (4 cell lines); assay: CellTiter-Glo Viability Assay, lung cancer; settings: Homo sapiens, inhibition of cancer cell proliferation
Protocol: as §1, §2, §3, §4

[3] = tested on: all 50 cell lines; assay: CellTiter-Glo Viability Assay, average across all cell lines; settings: Homo sapiens; across all 50 cell lines; read-out: average EC50 for inhibition of cancer cell proliferation
Protocol: as §1, §2, §3, §4

[4] = tested on: liver cancer (3 cell lines); assay: CellTiter-Glo Viability Assay, liver cancer; settings: Homo sapiens, inhibition of cancer cell proliferation
Protocol: as §1, §2, §3, §4

[5] = tested on: colorectal cancer (6 cell lines); assay: CellTiter-Glo Viability Assay, colorectal cancer; settings: Homo sapiens, inhibition of cancer cell proliferation
Protocol: as §1, §2, §3, §4

[6] = tested on: T47D; assay: CellTiter-Glo Viability Assay, breast cancer; settings: Homo sapiens, 96 h, breast cancer, four days, read-out: EC50
Protocol: as §1, §2, §3, §4

[7] = tested on: HCC1599; assay: CellTiter-Glo Viability Assay, breast cancer; settings: Homo sapiens, 96 h; HCC1599, breast cancer, four days; read-out: EC50
Protocol: as §1, §2, §3, §4

[8] = tested on: CAMA1; assay: CellTiter-Glo Viability Assay, breast cancer; settings: Homo sapiens, CAMA-1, 96 h; CAMA1, breast cancer, four days; read-out: EC50
Protocol: as §1, §2, §3, §4

[9] = tested on: MCF7; assay: CellTiter-Glo Viability Assay, breast cancer; settings: Homo sapiens, 96 h; MCF7, breast cancer, four days; read-out: EC50
Protocol: as §1, §2, §3, §4

[10] = tested on: BT-549; assay: CellTiter-Glo Viability Assay, breast cancer; settings: Homo sapiens, 96 h; BT-549, breast cancer, four days; read-out: EC50
Protocol: as §1, §2, §3, §4

[11] = tested on: DU4475; assay: CellTiter-Glo Viability Assay, breast cancer; settings: Homo sapiens, DU-4475, 96 h; DU4475, breast cancer, four days; read-out: EC50
Protocol: as §1, §2, §3, §4

[12] = tested on: MDA-MB-231-Luc; assay: CellTiter-Glo Viability Assay, breast cancer; settings: Homo sapiens, 96 h; MDA-MB-231-Luc, breast cancer, four days; read-out: EC50
Protocol: as §1, §2, §3, §4

[13] = tested on: ZR-75-1; assay: CellTiter-Glo Viability Assay, breast cancer; settings: Homo sapiens, 96 h; ZR-75-1, breast cancer, four days; read-out: EC50
Protocol: as §1, §2, §3, §4

[14] = tested on: pancreatic cancer (8 cell lines); assay: CellTiter-Glo Viability Assay, pancreatic cancer; settings: Homo sapiens, inhibition of cancer cell proliferation
Protocol: as §1, §2, §3, §4

[15] = tested on: prostate cancer (5 cell lines); assay: CellTiter-Glo Viability Assay, prostate cancer; settings: Homo sapiens
Protocol: as §1, §2, §3, §4

[16] = tested on: haematopoietic & lymphoid tumors (13 cell lines); assay: CellTiter-Glo Viability Assay, haematopoietic & lymphoid tumors; settings: Homo sapiens, inhibition of cancer cell proliferation
Protocol: as §1, §2, §3, §4

[17] = PA-1, PA1 cell line, read-out: Ovarian cancer, EC50 (μM) PA1
[18] = TOV112D, TOV-112D cell line, read-out: Ovarian cancer, EC50 (μM) TOV-112D
[19] = OV-90 cell line, read-out: Ovarian cancer, EC50 (μM) OV-90
[20] = OVCAR-3 cell line, read-out: Ovarian cancer, EC50 (μM) OVCAR-3
[21] = A-427, A427 cell line, read-out: Lung cancer, EC50 (μM) A427
[22] = HCC78, HCC-78 cell line, read-out: Lung cancer, EC50 (μM) HCC-78
[23] = NCI-H460 cell line, read-out: Lung cancer, EC50 (μM) NCI-H460
[24] = NCI-H522 cell line, read-out: Lung cancer, EC50 (μM) NCI-H522
[25] = SNU-398, SNU398 cell line, read-out: Liver cancer, EC50 SNU398
[26] = HEPG2 cell line, read-out: Liver cancer, EC50 HEPG2
[27] = PLC/PRF/5 cell line, read-out: Liver cancer, EC50 PLC/PRF/5
[28] = HCT-116, HCT116 cell line, read-out: Colorectal cancer, EC50 (μM) HCT116
[29] = HT-29, HT29 cell line, read-out: Colorectal cancer, EC50 (μM) HT29
[30] = SW-620, SW620 cell line, read-out: Colorectal cancer, EC50 (μM) SW620
[31] = DLD-1 cell line, read-out: Colorectal cancer, EC50 (μM) DLD-1
[32] = SW48 cell line, read-out: Colorectal cancer, EC50 (μM) SW48
[33] = SW480 cell line, read-out: Colorectal cancer, EC50 (μM) SW480
[34] = BXPC-3, BxPC3 cell line, read-out: Pancreatic cancer, EC50 BxPC3
[35] = CAPAN-1, Capan1 cell line, read-out: Pancreatic cancer, EC50 Capan1
[36] = Capan-2, Capan2 cell line, read-out: Pancreatic cancer, EC50 Capan2
[37] = MIA PaCa-2 cell line, read-out: Pancreatic cancer, EC50 MIA PaCa-2
[38] = PANC 05.04 cell line, read-out: Pancreatic cancer, EC50 PANC 05.04
[39] = PANC-1 cell line, read-out: Pancreatic cancer, EC50 PANC-1
[40] = UPAFII cell line, read-out: Pancreatic cancer, EC50 UPAFII
[41] = DU-145, read-out: Prostate cancer EC50 Du-145
[42] = PC-3, PC3 cell line, inhibition of cancer cell proliferation, read-out: Prostate cancer EC50 PC3
[43] = 22Rv1 cell line, inhibition of cancer cell proliferation, read-out: Prostate cancer EC50 22Rv1
[44] = LNCap clone FGC cell line, inhibition of cancer cell proliferation, read-out: Prostate cancer EC50 LNCap clone FGC
[45] = VCaP (Sigma) cell line, inhibition of cancer cell proliferation, read-out: Prostate cancer EC50 VCaP (Sigma)
[46] = DND41, DND-41 cell line, read-out: Haematopoietic & Lymphoid tumors, EC50 (μM) DND-41
[47] = MV4-11, MV-4-11 cell line, read-out: Haematopoietic & Lymphoid tumors, EC50 (μM) MV-4-11
[48] = Rec1, REC-1 cell line, read-out: Haematopoietic & Lymphoid tumors, EC50 (μM) REC-1
[49] = SU-DHL-4, SUDHL4 cell line, read-out: Haematopoietic & Lymphoid tumors, EC50 (μM) SUDHL4
[50] = HL-60 cell line, read-out: Haematopoietic & Lymphoid tumors, EC50 (μM) HL-60
[51] = JM1 cell line, read-out: Haematopoietic & Lymphoid tumors, EC50 (μM) JM1
[52] = JURKAT, Clone E6-1 cell line, read-out: Haematopoietic & Lymphoid tumors, EC50 (μM) JURKAT, Clone E6-1
[53] = JeKo-1 cell line, read-out: Haematopoietic & Lymphoid tumors, EC50 (μM) JeKo-1
[54] = KASUMI-1 cell line, read-out: Haematopoietic & Lymphoid tumors, EC50 (μM) KASUMI-1
[55] = Loucy cell line, read-out: Haematopoietic & Lymphoid tumors, EC50 (μM) Loucy
[56] = MOLT-4 cell line, read-out: Haematopoietic & Lymphoid tumors, EC50 (μM) MOLT-4
[57] = TF-1 cell line, read-out: Haematopoietic & Lymphoid tumors, EC50 (μM) TF-1
[58] = TOLEDO cell line, read-out: Haematopoietic & Lymphoid tumors, EC50 (μM) TOLEDO

Cc1ncc(C(=O)Nc2cc3nc(-c4cnc(C)n4C)ccc3cn2)s1 [Compound 82]
EC50 [1, 17]: 0.175 µM | EC50 [1, 18]: 0.147 µM | EC50 [1, 19]: 0.628 µM | EC50 [1, 20]: 0.073 µM | EC50 [2, 21]: 0.236 µM | EC50 [2, 22]: 0.308 µM | EC50 [2, 23]: 0.257 µM | EC50 [2, 24]: 0.19 µM | EC50 [3]: 282 nM | EC50 [4, 25]: 123 nM | EC50 [4, 26]: 485 nM | EC50 [4, 27]: 613 nM | EC50 [5, 28]: 0.168 µM | EC50 [5, 29]: 0.252 µM | EC50 [5, 30]: 0.143 µM | EC50 [5, 31]: 0.193 µM | EC50 [5, 32]: 0.122 µM | EC50 [5, 33]: 0.339 µM | EC50 [6]: 451 nM | EC50 [7]: 154 nM | EC50 [8]: 244 nM | EC50 [9]: 942 nM | EC50 [10]: 277 nM | EC50 [11]: 148 nM | EC50 [12]: 462 nM | EC50 [13]: 440 nM | EC50 [14, 34]: 199 nM | EC50 [14, 35]: 269 nM | EC50 [14, 36]: 579 nM | EC50 [14, 37]: 159 nM | EC50 [14, 38]: 279 nM | EC50 [14, 39]: 514 nM | EC50 [14, 40]: 169 nM | EC50 [15, 41]: 360 nM | EC50 [15, 42]: 287 nM | EC50 [15, 43]: 218 nM | EC50 [15, 44]: 293 nM | EC50 [15, 45]: 770 nM | EC50 [16, 46]: 0.288 µM | EC50 [16, 47]: 0.081 µM | EC50 [16, 48]: 0.103 µM | EC50 [16, 49]: 0.292 µM | EC50 [16, 50]: 0.221 µM | EC50 [16, 51]: 0.137 µM | EC50 [16, 52]: 0.169 µM | EC50 [16, 53]: 0.125 µM | EC50 [16, 54]: 0.163 µM | EC50 [16, 55]: 0.206 µM | EC50 [16, 56]: 0.233 µM | EC50 [16, 57]: 0.316 µM | EC50 [16, 58]: 0.117 µM

CN(C)Cc1cncc(-c2cnc3[nH]nc(-c4nc5c(-c6cc(F)cc(N7CCOCC7)c6)cncc5[nH]4)c3c2)c1 [Compound 46]
EC50 [1, 17]: 0.795 µM | EC50 [1, 18]: 0.713 µM | EC50 [1, 19]: 5.69 µM | EC50 [1, 20]: 0.302 µM | EC50 [2, 21]: 0.591 µM | EC50 [2, 22]: 4.68 µM | EC50 [2, 23]: > 10 µM | EC50 [2, 24]: 0.417 µM | EC50 [3]: 2860 nM | EC50 [4, 25]: 174 nM | EC50 [4, 26]: 3590 nM | EC50 [4, 27]: > 10000 nM | EC50 [5, 28]: 0.86 µM | EC50 [5, 29]: 8.89 µM | EC50 [5, 30]: 0.473 µM | EC50 [5, 31]: 2.35 µM | EC50 [5, 32]: 0.469 µM | EC50 [5, 33]: 0.491 µM | EC50 [6]: 2360 nM | EC50 [7]: 1170 nM | EC50 [8]: 2740 nM | EC50 [9]: > 10000 nM | EC50 [10]: 1170 nM | EC50 [11]: 4010 nM | EC50 [12]: 2090 nM | EC50 [13]: 1680 nM | EC50 [14, 34]: 6080 nM | EC50 [14, 35]: 2370 nM | EC50 [14, 36]: 4980 nM | EC50 [14, 37]: 414 nM | EC50 [14, 38]: 5400 nM | EC50 [14, 39]: > 10000 nM | EC50 [14, 40]: 1970 nM | EC50 [15, 41]: 2570 nM | EC50 [15, 42]: 1180 nM | EC50 [15, 43]: 968 nM | EC50 [15, 44]: 7780 nM | EC50 [15, 45]: 4540 nM | EC50 [16, 46]: 0.432 µM | EC50 [16, 47]: 0.039 µM | EC50 [16, 48]: 2.78 µM | EC50 [16, 49]: 0.398 µM | EC50 [16, 50]: 1.42 µM | EC50 [16, 51]: 0.176 µM | EC50 [16, 52]: 3.17 µM | EC50 [16, 53]: 0.182 µM | EC50 [16, 54]: 0.801 µM | EC50 [16, 55]: 0.466 µM | EC50 [16, 56]: 2.96 µM | EC50 [16, 57]: 6.09 µM | EC50 [16, 58]: 0.17 µM
